Test: Cleavage kinetics (stability) of tyrosine based linker derivatives in buffer at pH 4 and pH 7.4, HPLC
Assay type: physicochemical
Settings: room temperature; for % cleaved pH 4, 0 h / % cleaved pH 4, 24 h: pH 4 solution/acetonitrile; for % cleaved pH 4, 0 h / % cleaved pH 4, 24 h / % cleaved pH 7.4, 0 h / % cleaved pH 7.4, 6 h / % cleaved pH 7.4, 24 h: HPLC peak area; for % cleaved pH 7.4, 0 h / % cleaved pH 7.4, 6 h / % cleaved pH 7.4, 24 h: pH 7.4 buffer/acetonitrile; for cleavage kinetic (in words): summary of Table 1, pH 4 and pH 7.4, up to 24 h
Description: To illustrate the different kinetics of different linkers, simple derivatives of the tyrosine based molecule were synthesized and the cleavage at different time points in buffer at pH 4 and pH 7.4 were monitored. Based on the exact composition of the tyrosine based linker structure the formation of the cyclic urea with concomittant release of the free tyrosine OH group has different cleavage kinetics. These can be easily measured in vitro and used as predictors for the in vivo kinetics.
For the kinetic studies with regard to the stability of the different linkers 0.3 mg of the dry test compound are dissolved in 0.5 ml acetonitrile. For a better dilution the sample is sonified for about 10 seconds. Then 1.0 ml of the buffer solutions are added and the samples are sonified again.
Chemical composition of the solution/buffer which are used: • pH 4: 1 liter of deionized water was adjusted to pH 4 with 1N hydrochloric acid • pH 7.4: 90 g sodium chloride, 13.61 g potassium dihydrogene phosphate and 83.35 g 1 M sodium hydroxide solution were dissolved in 1 liter of deionized water. This solution was diluted with water at the rate of 1:10.
The test compound concentration is analysed by HPLC every hour during 24 hours at room temperature. The quantity of the test compound is determined by the peak areas.
HPLC method: Agilent 1100 with DAD (G1315B), binary pump (g1312A), autosampler (G1329A), column thermostat (G1330B), Column: Kromasil 100 C18/250 mm×4 mm/5 μm, Column temperature: 30° C., Eluent A: water+5 ml perchloric acid/1, Eluent B: acetonitrile, Gradient: 0-1.0 min 90% A, 10% B; 1.0-20.0 min 10% A, 90% B; 20.0-21.0 min 10% A, 90% B; 21.0-23.0 min 90% A, 10% B; 23.0-25.0 min 90% A, 10% B; Flow rate: 1.5 ml/min, Detection: 210 nm, Injection volume: 10 μl.

Structure (SMILES): NC(=O)[C@H](CSC1CC(=O)N(Cc2ccccc2)C1=O)NC(=O)[C@@H](N)CCNC(=O)Oc1ccc(C[C@H](N)C(=O)Nc2ccccc2)cc1 (stereo partly drawn) [Example 1C, O-{[(3S)-3-Amino-4-({(2R)-1-amino-3-[(1-benzyl-2,5-dioxopyrrolidin-3-yl)sulfanyl]-1-oxopropan-2-yl}amino)-4-oxobutyl]carbamoyl}-N-phenyl-L-tyrosinamide]
- % cleaved pH 4, 0 h: 0%
- % cleaved pH 4, 24 h: 1%
- % cleaved pH 7.4, 0 h: 0%
- % cleaved pH 7.4, 6 h: 7%
- % cleaved pH 7.4, 24 h: 21%

Structure (SMILES): NC(=O)[C@H](CSC1CC(=O)N(Cc2ccccc2)C1=O)NC(=O)[C@@H](N)CCCNC(=O)Oc1ccc(C[C@H](N)C(=O)Nc2ccccc2)cc1 (stereo partly shown) [Example 3C]
- % cleaved pH 4, 0 h: 0%
- % cleaved pH 4, 24 h: 0%
- % cleaved pH 7.4, 0 h: 0%
- % cleaved pH 7.4, 6 h: 2%
- % cleaved pH 7.4, 24 h: 11%
- cleavage kinetic (in words): cleaved slowly

Structure (SMILES): NCCC[C@H](NC(=O)Oc1ccc(C[C@H](N)C(=O)Nc2ccccc2)cc1)C(=O)N[C@@H](CSC1CC(=O)N(Cc2ccccc2)C1=O)C(N)=O (stereo partly shown) [Example 4C]
- % cleaved pH 4, 0 h: 0%
- % cleaved pH 4, 24 h: 0%
- % cleaved pH 7.4, 0 h: 0%
- % cleaved pH 7.4, 6 h: 23%
- % cleaved pH 7.4, 24 h: 65%
- cleavage kinetic (in words): cleaved quickly

Structure (SMILES): NCC[C@H](NC(=O)Oc1ccc(C[C@H](N)C(=O)Nc2ccccc2)cc1)C(=O)N[C@@H](CSC1CC(=O)N(Cc2ccccc2)C1=O)C(N)=O (stereo partly shown) [Example 5C]
- % cleaved pH 4, 0 h: 0%
- % cleaved pH 4, 24 h: 0%
- % cleaved pH 7.4, 0 h: 0%
- % cleaved pH 7.4, 6 h: 75%
- % cleaved pH 7.4, 24 h: 100%
- cleavage kinetic (in words): cleaved quickly

Structure (SMILES): N[C@@H](CCNC(=O)Oc1ccc(C[C@H](N)C(=O)Nc2ccccc2)cc1)C(=O)NCCSC1CC(=O)N(Cc2ccccc2)C1=O (stereo partly shown) [Example 6C]
- % cleaved pH 4, 0 h: 0%
- % cleaved pH 4, 24 h: 0%
- % cleaved pH 7.4, 0 h: 0%
- % cleaved pH 7.4, 6 h: 6%
- % cleaved pH 7.4, 24 h: 20%

Structure (SMILES): NC(=O)CNC(=O)[C@H](CSC1CC(=O)N(Cc2ccccc2)C1=O)NC(=O)[C@@H](N)CCNC(=O)Oc1ccc(C[C@H](N)C(=O)Nc2ccccc2)cc1 (stereo partly shown) [Example 7C]
- % cleaved pH 4, 0 h: 0%
- % cleaved pH 4, 24 h: 0%
- % cleaved pH 7.4, 0 h: 0%
- % cleaved pH 7.4, 6 h: 6%
- % cleaved pH 7.4, 24 h: 23%

Structure (SMILES): NC(=O)[C@H](CSC1CC(=O)N(Cc2ccccc2)C1=O)NC(=O)CNC(=O)[C@@H](N)CCNC(=O)Oc1ccc(C[C@H](N)C(=O)Nc2ccccc2)cc1 (stereo partly shown) [Example 8C]
- % cleaved pH 4, 0 h: 0%
- % cleaved pH 4, 24 h: 0%
- % cleaved pH 7.4, 0 h: 0%
- % cleaved pH 7.4, 6 h: 6%
- % cleaved pH 7.4, 24 h: 23%

Structure (SMILES): NC(=O)[C@H](CSC1CC(=O)N(Cc2ccccc2)C1=O)NC(=O)CCCCCNC(=O)[C@@H](N)CCNC(=O)Oc1ccc(C[C@H](N)C(=O)Nc2ccccc2)cc1 (stereo partly shown) [Example 9C]
- % cleaved pH 4, 0 h: 0%
- % cleaved pH 4, 24 h: 0%
- % cleaved pH 7.4, 0 h: 0%
- % cleaved pH 7.4, 6 h: 7%
- % cleaved pH 7.4, 24 h: 25%

Structure (SMILES): N[C@@H](CCNC(=O)Oc1ccc(C[C@H](N)C(=O)Nc2ccccc2)cc1)C(=O)NCCOCCOCCOCCn1cc(-c2ccccc2)nn1 [Example 10Cb, O-{[(14S)-14-Amino-13-oxo-1-(4-phenyl-1H-1,2,3-triazol-1-yl)-3,6,9-trioxa-12-azahexadecan-16-yl]carbamoyl}-N-phenyl-L-tyrosinamide]
- % cleaved pH 4, 0 h: 0%
- % cleaved pH 4, 24 h: 0%
- % cleaved pH 7.4, 0 h: 0%
- % cleaved pH 7.4, 6 h: 4%
- % cleaved pH 7.4, 24 h: 14%
- cleavage kinetic (in words): cleaved slowly

Structure (SMILES): NC[C@H](NC(=O)Oc1ccc(C[C@H](N)C(=O)Nc2ccccc2)cc1)C(=O)N[C@@H](CSC1CC(=O)N(Cc2ccccc2)C1=O)C(N)=O (stereo partly shown) [Example 11C]
- % cleaved pH 4, 0 h: 0%
- % cleaved pH 4, 24 h: 19%
- % cleaved pH 7.4, 0 h: 0%
- % cleaved pH 7.4, 6 h: 100%
- % cleaved pH 7.4, 24 h: 100%
- cleavage kinetic (in words): cleaved very quickly, even at pH4

Structure (SMILES): N[C@@H](Cc1ccc(OC(=O)NCC[C@H](N)C(=O)N[C@@H](CSC2CC(=O)N(Cc3ccccc3)C2=O)C(=O)Nc2ccccc2)cc1)C(=O)Nc1ccccc1 (stereo partly shown) [Example 12C]
- % cleaved pH 4, 0 h: 0%
- % cleaved pH 4, 24 h: 0%
- % cleaved pH 7.4, 0 h: 0%
- % cleaved pH 7.4, 6 h: 29%
- % cleaved pH 7.4, 24 h: 76%
- cleavage kinetic (in words): cleaved quickly
